These results are taken from US11046697B2, “Compounds and compositions useful for treating disorders related to NTRK” (BLUEPRINT MEDICINES CORPORATION, priority 2015, dated 2021).

pIC50: −log10 of the molar value. Where two headings read alike, the source gives them in different places.

For test [1], the target named is T1, wild type NTRK1 enzyme (Homo sapiens, UniProt P04629).
T1 construct: purchased BPS Bioscience 40280
Briefly: NTRK1 Wild Type Assay at 1 mM ATP. The test is classed as biochemical. The settings on record: 1 mM ATP; read-out: Enz NTRK1 IC50. As to the method: NTRK1 Wild Type Assay at 1 mM ATP
The reaction was stopped by the addition of 70 μL of Stop buffer (100 mM HEPES pH 7.5, 0.015% Brij 35, 35 mM EDTA and 0.2% of Coating Reagent 3 (Caliper Lifesciences)). The plate was then read on a Caliper EZReader 2 (protocol settings: −1.7 psi, upstream voltage −500, downstream voltage −3000, post sample sip 35s).

The test system of test [2] is KM12 wild type colon carcinoma cell line harboring the TPM3-NTRK1 fusion protein. Briefly: NTRK wild type cellular assay (CellTiter-Glo growth inhibition). The test is classed as cell-based. The settings on record: 72 hr, CellTiter-Glo, read-out: KM12 (WT) IC50. The method in brief: (§1)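 KM12 (TPM3-NTRK1 fusion) or KM12 Cliff (G595R) cells at 1000 cells/well in 10% FBS media were dosed with compounds at varying concentrations in duplicate after overnight plating.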

The subject of test [3] is KM12 Cliff (G595R) cell line. Briefly: NTRK G595R mutant cellular assay (CellTiter-Glo growth inhibition). The test is classed as cell-based. Conditions: 72 hr, CellTiter-Glo. The method in brief:
as §1

T1 sequence (P04629 440-796 limits assumed): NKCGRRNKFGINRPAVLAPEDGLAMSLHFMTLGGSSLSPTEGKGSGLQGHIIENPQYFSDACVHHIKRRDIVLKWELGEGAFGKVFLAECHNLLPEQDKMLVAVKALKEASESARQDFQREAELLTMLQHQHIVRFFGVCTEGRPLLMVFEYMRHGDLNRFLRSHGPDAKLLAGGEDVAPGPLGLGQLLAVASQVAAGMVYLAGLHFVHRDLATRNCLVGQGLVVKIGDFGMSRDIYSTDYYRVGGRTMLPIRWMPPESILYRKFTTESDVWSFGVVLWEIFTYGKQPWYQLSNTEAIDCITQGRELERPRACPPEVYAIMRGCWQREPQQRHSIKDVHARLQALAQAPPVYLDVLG

On to `CCN(Cc1cc(F)ccc1F)C(=O)c1n[nH]c2ncnc(NC3CCCC3O)c12` (stereo not drawn) [Compound 26], for which the values for the negative logarithm of the IC50 (pIC50) in test [1], in test [2] and in test [3] were 7.00 to 8.00, 7.00 to 8.00 and 6.00 to 7.00, respectively.
As to `CN(Cc1cc(Cl)ccc1Br)C(=O)c1n[nH]c2ncnc(N[C@@H]3CCC[C@@H](O)[C@H]3O)c12` [Compound 167], the pIC50 in test [1], in test [2] and in test [3] was greater than 8.00 in each case.
As to `O=C(NCc1cc(F)ccc1F)c1n[nH]c2ncnc(NC3CC(F)CC3O)c12` (stereo not drawn) [Compound 15], the negative logarithm of the IC50 (pIC50) was 6.00 to 7.00 in test [1], 6.00 to 7.00 in test [2] and less than 6.00 in test [3].
As to `O=C(NC(CO)c1cc(F)ccc1F)c1n[nH]c2ncnc(NC3CC(F)CC3O)c12` (stereo not drawn) [Compound 61], the pIC50 in test [1] was 6.00 to 7.00; in test [2] (Homo sapiens, KM12, 72 h) it was 6.00 to 7.00; in test [3] (Homo sapiens, KM12, 72 h), less than 6.00.
For the compound `COc1ncc(F)cc1[C@H]1C[C@H](F)CN1C(=O)c1n[nH]c2ncnc(N[C@@H]3CCOC[C@H]3O)c12` [Compound 190], the pIC50 in test [1] was greater than 8.00; in test [2] (Homo sapiens, KM12, 72 h), 7.00 to 8.00; in test [3] (Homo sapiens, KM12, 72 h), 7.00 to 8.00.
As for `O=C(c1n[nH]c2ncnc(NC3CCCC(O)C3O)c12)N1CC(F)CC1c1cc(F)ccc1Cl` (stereo not drawn) [Compound 217], the pIC50 in test [1], in test [2] and in test [3] was greater than 8.00 in each case.
For the compound `O=C(NCc1cc(F)ccc1F)c1n[nH]c2ncnc(N[C@@H]3[C@H]4C[C@H]4C[C@H]3O)c12` [Compound 3], the negative logarithm of the IC50 (pIC50) in test [1] is less than 6.00; in test [2] (Homo sapiens, KM12, 72 h), less than 6.00; in test [3] (Homo sapiens, KM12, 72 h), less than 6.00.
In the case of `CN(Cc1cc(F)cc(F)c1)C(=O)c1n[nH]c2ncnc(NC3CCC(O)C3O)c12` (stereo not drawn) [Compound 33], the pIC50 in test [1], in test [2] and in test [3] was 7.00 to 8.00 each time.
In the case of `O=C(NCc1cc(F)ccc1F)c1n[nH]c2ncnc(N[C@@H]3COCC[C@H]3O)c12` [Compound 8], the pIC50 in test [1] was 7.00 to 8.00; in test [2] (Homo sapiens, KM12, 72 h) it was 7.00 to 8.00; in test [3] (Homo sapiens, KM12, 72 h), 6.00 to 7.00.
As to `O=C(c1n[nH]c2ncnc(N[C@@H]3CCCC(F)(F)[C@H]3O)c12)N1C[C@@H](F)C[C@@H]1c1cncc(F)c1` [Compound 231], the pIC50 in test [1] was 7.00 to 8.00; in test [2] (Homo sapiens, KM12, 72 h), 7.00 to 8.00; in test [3] (Homo sapiens, KM12, 72 h), 6.00 to 7.00.
Regarding `O=C(c1n[nH]c2ncnc(N[C@H]3[C@H](O)[C@H](O)[C@@H]4C[C@@H]43)c12)N1C[C@@H](F)C[C@@H]1c1cc(F)ccc1OC(F)(F)F` [Compound 242], the pIC50 in test [1], in test [2] and in test [3] was greater than 8.00 each time.
On to `O=C(N[C@@H](c1cc(F)ccc1F)C(F)(F)F)c1n[nH]c2ncnc(N[C@@H]3COCC[C@H]3O)c12` [Compound 103], for which the negative-log IC50 (pIC50) in test [1] was less than 6.00; in test [2] (Homo sapiens, KM12, 72 h), less than 6.00; in test [3] (Homo sapiens, KM12, 72 h), less than 6.00.
With `O=C(c1n[nH]c2ncnc(N[C@@H]3CN(C4COC4)C[C@H]3O)c12)N1C[C@@H](F)C[C@@H]1c1cc(F)ccc1F` [Compound 229, ((2R,4S)-2-(2,5-difluorophenyl)-4-fluoropyrrolidin-1-yl)(4-(((3R,4R)-4-hydroxy-1-(oxetan-3-yl)pyrrolidin-3-yl)amino)-1H-pyrazolo[3,4-d]pyrimidin-3-yl)methanone], the pIC50 in test [1] is greater than 8.00; in test [2] (Homo sapiens, KM12, 72 h), greater than 8.00; in test [3] (Homo sapiens, KM12, 72 h) it was greater than 8.00.
With `O=C(c1n[nH]c2ncnc(N[C@@H]3CC(F)(F)[C@@H](O)[C@H]3O)c12)N1C[C@@H](F)C[C@@H]1c1cc(F)ccc1F` [Compound 227], the pIC50 in test [1], in test [2] and in test [3] was greater than 8.00 throughout.
For `CN(Cc1cc(F)ccc1F)C(=O)c1n[nH]c2ncnc(N[C@@H]3CCC[C@H]3O)c12` [Compound 6], the negative-log IC50 (pIC50) in test [1] is greater than 8.00; in test [2] (Homo sapiens, KM12, 72 h), 7.00 to 8.00; in test [3] (Homo sapiens, KM12, 72 h), 7.00 to 8.00.
For `COc1cc(F)cc(CN(C)C(=O)c2n[nH]c3ncnc(N[C@@H]4CC[C@@H](O)[C@H]4O)c23)c1` [Compound 48], the pIC50 in test [1] is 7.00 to 8.00; in test [2] (Homo sapiens, KM12, 72 h), 7.00 to 8.00; in test [3] (Homo sapiens, KM12, 72 h), 6.00 to 7.00.
As for `O=C(NCc1cc(F)ccc1F)c1n[nH]c2ncnc(N[C@@H]3CCC[C@@H](O)[C@H]3O)c12` [Compound 32], the pIC50 in test [1] was 7.00 to 8.00; in test [2] (Homo sapiens, KM12, 72 h) it was 6.00 to 7.00; in test [3] (Homo sapiens, KM12, 72 h) it was 6.00 to 7.00.
As for `CN(Cc1cncc(F)c1)C(=O)c1n[nH]c2ncnc(N[C@@H]3CC[C@@H](O)[C@H]3O)c12` [Compound 5], the negative-log IC50 (pIC50) in test [1] was 6.00 to 7.00; in test [2] (Homo sapiens, KM12, 72 h), 6.00 to 7.00; in test [3] (Homo sapiens, KM12, 72 h) it was 6.00 to 7.00.
Take `N#C[C@H]1C[C@@H](O)[C@H](Nc2ncnc3[nH]nc(C(=O)N4C[C@@H](F)C[C@@H]4c4cncc(F)c4)c23)C1` [Compound 166]: the pIC50 is greater than 8.00 in test [1], 6.00 to 7.00 in test [2] and 6.00 to 7.00 in test [3].
In the case of `CN(Cc1cc(F)cnc1Cl)C(=O)c1n[nH]c2ncnc(N[C@H]3[C@H](O)[C@H](O)[C@@H]4C[C@@H]43)c12` [Compound 159], the pIC50 in test [1] was greater than 8.00; in test [2] (Homo sapiens, KM12, 72 h), 7.00 to 8.00; in test [3] (Homo sapiens, KM12, 72 h), 7.00 to 8.00.
Turning to `O=C(c1n[nH]c2ncnc(N[C@@H]3COC[C@@H](O)[C@H]3O)c12)N1C[C@@H](F)C[C@@H]1c1cc(F)ccc1OC(F)(F)F` [Compound 244], the pIC50 in test [1] is greater than 8.00; in test [2] (Homo sapiens, KM12, 72 h), greater than 8.00; in test [3] (Homo sapiens, KM12, 72 h) it was greater than 8.00.
Regarding `CN(Cc1cc(F)cc(F)c1F)C(=O)c1n[nH]c2ncnc(N[C@@H]3CC[C@@H](O)[C@H]3O)c12` [Compound 63], the pIC50 in test [1] is greater than 8.00; in test [2] (Homo sapiens, KM12, 72 h) it was 7.00 to 8.00; in test [3] (Homo sapiens, KM12, 72 h), 7.00 to 8.00.
Consider `O=C(c1n[nH]c2ncnc(N[C@@H]3COC[C@@H](O)[C@H]3O)c12)N1C[C@@H](F)C[C@@H]1c1cc(F)ccc1Cl` [Compound 222], for which the pIC50 in test [1] is greater than 8.00; in test [2] (Homo sapiens, KM12, 72 h), 7.00 to 8.00; in test [3] (Homo sapiens, KM12, 72 h), 7.00 to 8.00.
As to `O=C(NCc1cc(F)ccc1F)c1n[nH]c2ncnc(N[C@@H]3CC[C@@H](F)[C@H]3O)c12` (relative stereo) [Compound 19], the negative logarithm of the IC50 (pIC50) in test [1] is less than 6.00; in test [2] (Homo sapiens, KM12, 72 h), less than 6.00; in test [3] (Homo sapiens, KM12, 72 h), less than 6.00.
Consider `O=C(c1n[nH]c2ncnc(N[C@@H]3C=C[C@@H](O)[C@H]3O)c12)N1C[C@@H](F)C[C@@H]1c1cc(F)cnc1Cl` [Compound 194], for which the pIC50 in test [1], in test [2] and in test [3] was 7.00 to 8.00 throughout.
On to `O=C(c1n[nH]c2ncnc(N[C@H]3[C@H](O)[C@H](O)[C@@H]4C[C@@H]43)c12)N1C[C@@H](F)C[C@@H]1c1cccc(F)c1F` [Compound 189], for which the pIC50 was greater than 8.00 in test [1], greater than 8.00 in test [2] and 7.00 to 8.00 in test [3].
`O=C(c1n[nH]c2ncnc(N[C@@H]3CCC[C@@H](O)[C@H]3O)c12)N1C[C@@H](F)C[C@@H]1c1ccccc1` [Compound 155]: the pIC50 in test [1], in test [2] and in test [3] was 7.00 to 8.00 each time.
Take `O=C(NCc1cc(F)ccc1F)c1n[nH]c2ncnc(NC3CC(F)(F)CC3O)c12` (stereo not drawn) [Compound 43]: the pIC50 was 7.00 to 8.00 in test [1], 7.00 to 8.00 in test [2] and 6.00 to 7.00 in test [3].
In the case of `CS(=O)(=O)[C@H]1C[C@@H](O)[C@H](Nc2ncnc3[nH]nc(C(=O)NCc4cc(F)ccc4F)c23)C1` [Compound 97, N-(2,5-difluorobenzyl)-4-(((1R,2R,4R)-2-hydroxy-4-(methylsulfonyl)cyclopentyl)amino)-1H-pyrazolo[3,4-d]pyrimidine-3-carboxamide], the pIC50 in test [1] was greater than 8.00; in test [2] (Homo sapiens, KM12, 72 h), 7.00 to 8.00; in test [3] (Homo sapiens, KM12, 72 h), 6.00 to 7.00.
Taken in the same sequence, the figures for `O=C(c1n[nH]c2ncnc(N[C@@H]3CC[C@@H](O)[C@H]3O)c12)N1C[C@@H](F)C[C@@H]1c1cc(F)ccc1Cl` [Compound 195] were greater than 8.00, greater than 8.00 and greater than 8.00.
On to `O=C(c1n[nH]c2ncnc(NC3CCCC(O)C3O)c12)N1CC(F)CC1c1cccc(F)c1F` (stereo not drawn) [Compound 193], for which the values for the negative-log IC50 (pIC50) in test [1], in test [2] and in test [3] were greater than 8.00, 7.00 to 8.00 and 7.00 to 8.00, respectively.
For the compound `CN(Cc1cc(F)cnc1Cl)C(=O)c1n[nH]c2ncnc(NC3CCOCC3O)c12` (stereo not drawn) [Compound 150], the pIC50 in test [1], in test [2] and in test [3] was 7.00 to 8.00 each time.
Take `N#Cc1cc(F)cc(C2CC(F)CN2C(=O)c2n[nH]c3ncnc(NC4CCOCC4O)c23)c1` (stereo not drawn) [Compound 181]: the pIC50 was greater than 8.00 in test [1], 7.00 to 8.00 in test [2] and 7.00 to 8.00 in test [3].
In the case of `O=C(c1n[nH]c2ncnc(NC3CC[C@@H](O)C[C@H]3O)c12)N1C[C@@H](F)C[C@@H]1c1cc(F)ccc1F` (stereo partly drawn) [Compound 191], the pIC50 in test [1] is greater than 8.00; in test [2] it was 7.00 to 8.00; in test [3], 7.00 to 8.00.
Take `COc1c(F)cc(F)cc1[C@H]1C[C@H](F)CN1C(=O)c1n[nH]c2ncnc(N[C@@H]3CC[C@@H](O)[C@H]3O)c12` [Compound 219]: the pIC50 in test [1], in test [2] and in test [3] was greater than 8.00 in each case.
Regarding `O=C(c1n[nH]c2ncnc(N[C@@H]3CCC[C@@H](O)[C@H]3O)c12)N1C[C@@H](F)C[C@@H]1c1cc(F)cc(Cl)c1` [Compound 130], the pIC50 in test [1], in test [2] and in test [3] was greater than 8.00 in each case.
On to `O=C(NCc1cc(F)ccc1F)c1n[nH]c2ncnc(NC3CC(F)CC3O)c12` (stereo not drawn) [Compound 14], for which the pIC50 in test [1], in test [2] and in test [3] was 6.00 to 7.00 each time.
